# Reference: ChEMBL document CHEMBL2007661, “Compounds: GSK PKIS; Assays: UNC Frye lab” (2012)
# Values joined by “and” are separate entries in the source; they are usually repeats but may differ in a detail not shown here. Equal entries are not always repeated.
# Assays:
# [1] = molecular target: T1, Inhibitor of nuclear factor kappa-B kinase subunit alpha (Homo sapiens) (UniProt O15111); settings: at 1 µM
# T1 sequence (whole entry): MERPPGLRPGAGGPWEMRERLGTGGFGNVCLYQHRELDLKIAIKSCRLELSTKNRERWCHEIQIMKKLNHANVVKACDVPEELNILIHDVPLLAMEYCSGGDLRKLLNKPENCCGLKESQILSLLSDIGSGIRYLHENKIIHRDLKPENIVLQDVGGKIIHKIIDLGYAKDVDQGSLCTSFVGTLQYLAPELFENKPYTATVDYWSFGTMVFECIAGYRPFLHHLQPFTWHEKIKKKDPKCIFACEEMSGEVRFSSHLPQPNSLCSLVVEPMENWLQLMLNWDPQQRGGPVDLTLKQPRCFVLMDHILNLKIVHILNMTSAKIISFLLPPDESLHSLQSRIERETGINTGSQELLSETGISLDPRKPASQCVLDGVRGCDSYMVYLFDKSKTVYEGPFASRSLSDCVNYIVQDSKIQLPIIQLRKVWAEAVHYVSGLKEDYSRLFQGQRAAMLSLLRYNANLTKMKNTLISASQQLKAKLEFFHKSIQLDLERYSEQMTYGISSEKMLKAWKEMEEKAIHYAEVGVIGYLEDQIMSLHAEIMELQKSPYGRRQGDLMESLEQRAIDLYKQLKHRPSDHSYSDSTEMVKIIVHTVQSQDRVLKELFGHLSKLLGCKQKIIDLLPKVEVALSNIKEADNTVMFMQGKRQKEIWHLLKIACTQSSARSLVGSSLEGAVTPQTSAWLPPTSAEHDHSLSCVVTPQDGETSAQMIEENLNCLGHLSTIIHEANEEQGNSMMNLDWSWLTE
# [2] = molecular target: T2, Inhibitor of nuclear factor kappa-B kinase subunit epsilon (Homo sapiens) (UniProt Q14164); settings: at 1 µM
# T2 sequence (whole entry): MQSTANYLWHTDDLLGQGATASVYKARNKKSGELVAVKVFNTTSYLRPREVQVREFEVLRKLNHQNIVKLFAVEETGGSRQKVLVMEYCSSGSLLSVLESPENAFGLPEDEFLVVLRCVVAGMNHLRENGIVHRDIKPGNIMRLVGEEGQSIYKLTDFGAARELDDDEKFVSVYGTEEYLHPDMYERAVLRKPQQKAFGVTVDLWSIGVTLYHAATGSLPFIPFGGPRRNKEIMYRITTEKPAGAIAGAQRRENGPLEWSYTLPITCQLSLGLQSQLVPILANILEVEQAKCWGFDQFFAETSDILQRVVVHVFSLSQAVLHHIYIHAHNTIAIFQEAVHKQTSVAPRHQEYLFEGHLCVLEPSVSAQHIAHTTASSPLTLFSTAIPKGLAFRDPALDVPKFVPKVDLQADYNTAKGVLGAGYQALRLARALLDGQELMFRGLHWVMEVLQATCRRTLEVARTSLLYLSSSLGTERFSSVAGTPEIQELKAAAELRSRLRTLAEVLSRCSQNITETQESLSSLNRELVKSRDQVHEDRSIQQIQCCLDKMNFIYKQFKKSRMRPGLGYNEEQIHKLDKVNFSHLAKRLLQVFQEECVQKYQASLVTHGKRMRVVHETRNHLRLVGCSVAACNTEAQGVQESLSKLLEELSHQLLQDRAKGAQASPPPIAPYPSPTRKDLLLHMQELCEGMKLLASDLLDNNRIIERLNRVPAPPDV
inhibition [1],inhibition [2],SMILES
-6% and 2%,5%,O=C1NC(=O)C(c2cccc(Cl)c2)=C1Nc1ccc(Cl)c(C(=O)O)c1
1%,0% and 1%,NS(=O)(=O)c1ccc(-c2cc3ccncc3cc2OCc2ccccc2)cc1
-1% and 0%,-1% and -3%,O=C(O[C@H]1CN[C@H](C#Cc2cc3ncnc(Nc4ccc(OCc5cccc(F)c5)c(Cl)c4)c3s2)C1)N1CCOCC1
0% and -1%,-3% and -4%,COc1ccc2ncn(-c3cc(O[C@H](C)c4ccccc4C(F)(F)F)c(C(N)=O)s3)c2c1
1% and -8%,-2%,COc1ccc2ncn(-c3cc(O[C@H](C)c4ccccc4Cl)c(C(N)=O)s3)c2c1
2% and 0%,-3% and 0%,COC(=O)Nc1nc2cc(Oc3ccc(NC(=O)Nc4cccc(Br)c4)cc3)ccc2[nH]1

# Second part, the compound before the results:
SMILES,inhibition [1],inhibition [2]
CN1CCN(C(=O)c2ccc(NC(=O)Nc3ccc(N(C)c4ccnc(Nc5ccc(CS(C)(=O)=O)cc5)n4)cc3)cc2)CC1,1% and 2%,26% and 22%
COc1cc(Nc2nccc(Nc3ccc4c(C)n[nH]c4c3)n2)cc(OC)c1OC,-1% and -2%,22% and 23%
FC(F)(F)c1ccc(-c2nn3ncccc3c2-c2ccnc(Nc3ccc4c(c3)OCCO4)n2)cc1,1% and 0%,-2%
C#Cc1cccc(Nc2ncnc3ccc(OCCCCNCCS(C)(=O)=O)cc23)c1,3%,-2% and 0%
c1cnn2ncc(-c3ccnc(NCCCN4CCOCC4)n3)c2c1,2% and 1%,1% and 2%
CCn1c(-c2nonc2N)nc2c(C#CC(C)(C)O)nc(OC[C@@H](N)c3ccccc3)cc21,13% and 12%,39% and 40%
COC(=O)Nc1nc2ccc(Sc3ccc(NC(=O)Nc4cc(C(F)(F)F)ccc4F)cc3)cc2[nH]1,3%,-2% and -1%
COc1cc2c(cc1Nc1nc(Nc3cccc(F)c3C(N)=O)c3cc[nH]c3n1)N(C(=O)CN1CCN(C(C)C)CC1)CC2,4% and 5%,-1% and -2%
O=C(O[C@H]1CN[C@H](C#Cc2cc3ncnc(Nc4ccc(Cc5ccccc5)cc4)c3s2)C1)N1CCOCC1,-7%,4% and 2%
CCn1c(-c2nonc2N)nc2c(C#CCN)ncc(OCCCN)c21,22%,8% and 6%
COc1cc(/C=N/Nc2ncnc3[nH]ncc23)ccc1O,6%,20%
